Test results reported in publication PMC9218239 (Current Research in Pharmacology and Drug Discovery, 2022).
Where two headings read alike, the source gives them in different places.

What was measured:
[1] = target: CYP2C9 pooled human supersomes (Homo sapiens, UniProt P11712); assay: CYP2C9 supersome screening; format: in vitro ADME; settings: 10 μM; strongly metabolized = less than 80% of the drug remaining
[2] = test system: CYP1A2, 2C9, 2C19, 2D6, and 3A4 pooled human supersomes; settings: 10 μM, recorded from major to minor
[3] = target: CYP2C19 pooled human supersomes (Homo sapiens, UniProt P33261); assay: CYP2C19 supersome screening; format: in vitro ADME; settings: 10 μM; strongly metabolized = less than 80% of the drug remaining
Chain of CYP2C19 pooled human supersomes (P33261 whole entry): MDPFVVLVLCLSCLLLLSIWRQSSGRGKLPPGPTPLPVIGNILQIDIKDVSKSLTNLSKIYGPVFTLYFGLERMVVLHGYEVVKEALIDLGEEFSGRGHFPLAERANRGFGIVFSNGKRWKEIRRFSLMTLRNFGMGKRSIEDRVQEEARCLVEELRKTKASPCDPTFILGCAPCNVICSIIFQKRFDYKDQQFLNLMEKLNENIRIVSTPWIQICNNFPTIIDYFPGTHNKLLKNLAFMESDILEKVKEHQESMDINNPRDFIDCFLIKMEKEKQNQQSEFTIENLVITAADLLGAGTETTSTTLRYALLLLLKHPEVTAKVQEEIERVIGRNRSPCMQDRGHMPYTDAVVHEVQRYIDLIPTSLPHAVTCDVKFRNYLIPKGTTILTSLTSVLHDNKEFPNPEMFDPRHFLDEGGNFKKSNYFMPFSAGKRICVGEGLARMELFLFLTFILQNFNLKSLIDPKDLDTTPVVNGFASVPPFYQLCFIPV

[4] = test system: pooled cryopreserved primary human hepatocytes; settings: single drug, 10 μM, 3 h

Chain of CYP2C9 pooled human supersomes (P11712 whole entry): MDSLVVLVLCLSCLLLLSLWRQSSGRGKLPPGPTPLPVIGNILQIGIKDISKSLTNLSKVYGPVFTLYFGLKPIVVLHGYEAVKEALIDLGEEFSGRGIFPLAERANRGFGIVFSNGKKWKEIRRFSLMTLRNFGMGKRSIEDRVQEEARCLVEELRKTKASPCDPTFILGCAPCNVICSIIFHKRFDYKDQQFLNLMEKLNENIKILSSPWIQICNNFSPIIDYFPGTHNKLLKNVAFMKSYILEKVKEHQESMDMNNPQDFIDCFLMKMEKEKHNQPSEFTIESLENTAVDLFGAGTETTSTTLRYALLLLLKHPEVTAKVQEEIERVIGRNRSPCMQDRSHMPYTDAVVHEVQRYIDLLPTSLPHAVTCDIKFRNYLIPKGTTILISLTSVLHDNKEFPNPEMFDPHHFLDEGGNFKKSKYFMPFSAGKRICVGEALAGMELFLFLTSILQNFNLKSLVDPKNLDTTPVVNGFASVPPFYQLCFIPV

| Compound | Metabolism Pathway: CYP Pathway (isoenzymes showing parent degradation) [2] | Drug remaining with CYP2C19 (strongly metabolized) [3] | further results |
| --- | --- | --- | --- |
| CN[C@H]1CC[C@@H](c2ccc(Cl)c(Cl)c2)c2ccccc21 [Sertraline, sertraline] | CYP 2D6∗, 2C9∗, 2C19∗, 1A2, 3A4 | less than 80% | Drug remaining with CYP2C9 (strongly metabolized) [1]: less than 80%; Metabolism Pathway: CYP Pathway (isoenzymes showing parent degradation) ([2]; listed as sertraline): CYP2D6, 2C9, 2C19, 1A2, and 3A4 |
| CN(C)CCCC1(c2ccc(F)cc2)OCc2cc(C#N)ccc21 (centres unmarked) [Citalopram, citalopram] | CYP 2D6∗, 2C19∗, 3A4, 2C9 | less than 80% | Metabolism Pathway: CYP Pathway (isoenzymes showing parent degradation) ([2]; listed as citalopram): CYP2D6, 2C19, 3A4, and 2C9 |
| COc1cc2ncnc(Nc3ccc(F)c(Cl)c3)c2cc1OCCCN1CCOCC1 [Gefitinib, gefitinib] | CYP 2D6 ∗, 3A4∗, 1A2, 2C9, 2C19 | – | Metabolism Pathway: CYP Pathway (isoenzymes showing parent degradation) ([2]; listed as gefitinib): CYP2D6, 3A4, 1A2, 2C9, and 2C19 |
| COCCCC/C(=N\OCCN)c1ccc(C(F)(F)F)cc1 [Fluvoxamine, fluvoxamine] | CYP 2D6∗, 2C9, 2C19 | – | Metabolism Pathway: CYP Pathway (isoenzymes showing parent degradation) ([2]; listed as fluvoxamine): CYP2D6, 2C9, and 2C19 |
| COc1ccc(C(CN(C)C)C2(O)CCCCC2)cc1 (centres unmarked) [Venlafaxine, venlafaxine] | CYP 2D6∗, 2C19∗ | – | Metabolism Pathway: CYP Pathway (isoenzymes showing parent degradation) ([2]; listed as venlafaxine): CYP2D6 and 2C19 |
| Fc1ccc([C@@H]2CCNC[C@H]2COc2ccc3c(c2)OCO3)cc1 [Paroxetine, paroxetine] | – | – | Potential metabolites observed in hepatocytes (alone) assays [4]: no potential metabolites observed |
